Data from patent US20250361230A1, “LATS Inhibitors and Uses Thereof” (The USA, as Represented by the Secretary, Dept. of Heath …, priority 2022, published 2025).

Columns and labels:
Assay type in all cases: biochemical
LATS1 = biological target: T1, LATS1 (Homo sapiens, UniProt O95835); assay: RBC HotSpot kinase assay (33P-ATP, P81 filter-binding), LATS1; conditions: Table 28, biochemical kinase assay; read-out: LATS1 IC50
T1 sequence (O95835 1-1130): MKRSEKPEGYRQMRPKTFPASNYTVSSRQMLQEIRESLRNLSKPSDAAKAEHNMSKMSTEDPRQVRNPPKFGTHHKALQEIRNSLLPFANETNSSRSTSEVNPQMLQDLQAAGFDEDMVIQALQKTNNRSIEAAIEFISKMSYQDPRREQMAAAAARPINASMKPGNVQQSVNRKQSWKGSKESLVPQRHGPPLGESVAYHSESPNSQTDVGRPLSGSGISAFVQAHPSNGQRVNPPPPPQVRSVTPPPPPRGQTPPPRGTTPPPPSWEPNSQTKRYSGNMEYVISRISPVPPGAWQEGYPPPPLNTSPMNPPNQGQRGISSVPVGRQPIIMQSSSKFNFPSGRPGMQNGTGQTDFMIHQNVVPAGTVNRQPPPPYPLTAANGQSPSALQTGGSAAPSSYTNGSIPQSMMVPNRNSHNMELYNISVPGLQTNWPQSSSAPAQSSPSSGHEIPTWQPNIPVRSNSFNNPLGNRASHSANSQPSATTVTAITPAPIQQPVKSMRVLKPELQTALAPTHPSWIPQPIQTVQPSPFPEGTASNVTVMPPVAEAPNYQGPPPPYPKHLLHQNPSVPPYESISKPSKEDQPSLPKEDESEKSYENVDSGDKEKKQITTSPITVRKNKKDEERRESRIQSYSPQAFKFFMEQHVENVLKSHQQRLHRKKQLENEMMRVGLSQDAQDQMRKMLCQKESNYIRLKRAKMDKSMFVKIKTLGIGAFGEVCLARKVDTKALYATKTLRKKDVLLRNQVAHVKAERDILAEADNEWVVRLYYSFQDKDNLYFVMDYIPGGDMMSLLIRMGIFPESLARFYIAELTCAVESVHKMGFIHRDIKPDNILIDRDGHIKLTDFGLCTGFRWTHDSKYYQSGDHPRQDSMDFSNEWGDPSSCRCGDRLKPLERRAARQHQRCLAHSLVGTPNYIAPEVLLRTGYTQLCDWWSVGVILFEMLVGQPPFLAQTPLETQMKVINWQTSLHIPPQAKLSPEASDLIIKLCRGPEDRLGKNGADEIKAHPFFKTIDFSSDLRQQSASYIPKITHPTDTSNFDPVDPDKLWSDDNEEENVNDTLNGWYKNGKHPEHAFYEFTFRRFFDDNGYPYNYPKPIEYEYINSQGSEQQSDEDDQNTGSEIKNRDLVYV
Method in brief: (§1)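 Substrate in fresh buffer receives cofactors, then kinase, then compound in DMSO for a 20 min room-temperature preincubation. Reactions start with 33P-ATP and run 2 h; phosphorylation is read by P81 filter binding, and IC50 comes from a 10-point curve.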

LATS2 = biological target: T2, LATS2 (Homo sapiens, UniProt Q9NRM7); assay: RBC HotSpot kinase assay (33P-ATP, P81 filter-binding), LATS2; conditions: Table 28, biochemical kinase assay; read-out: LATS2 IC50
T2 sequence (Q9NRM7 1-1088): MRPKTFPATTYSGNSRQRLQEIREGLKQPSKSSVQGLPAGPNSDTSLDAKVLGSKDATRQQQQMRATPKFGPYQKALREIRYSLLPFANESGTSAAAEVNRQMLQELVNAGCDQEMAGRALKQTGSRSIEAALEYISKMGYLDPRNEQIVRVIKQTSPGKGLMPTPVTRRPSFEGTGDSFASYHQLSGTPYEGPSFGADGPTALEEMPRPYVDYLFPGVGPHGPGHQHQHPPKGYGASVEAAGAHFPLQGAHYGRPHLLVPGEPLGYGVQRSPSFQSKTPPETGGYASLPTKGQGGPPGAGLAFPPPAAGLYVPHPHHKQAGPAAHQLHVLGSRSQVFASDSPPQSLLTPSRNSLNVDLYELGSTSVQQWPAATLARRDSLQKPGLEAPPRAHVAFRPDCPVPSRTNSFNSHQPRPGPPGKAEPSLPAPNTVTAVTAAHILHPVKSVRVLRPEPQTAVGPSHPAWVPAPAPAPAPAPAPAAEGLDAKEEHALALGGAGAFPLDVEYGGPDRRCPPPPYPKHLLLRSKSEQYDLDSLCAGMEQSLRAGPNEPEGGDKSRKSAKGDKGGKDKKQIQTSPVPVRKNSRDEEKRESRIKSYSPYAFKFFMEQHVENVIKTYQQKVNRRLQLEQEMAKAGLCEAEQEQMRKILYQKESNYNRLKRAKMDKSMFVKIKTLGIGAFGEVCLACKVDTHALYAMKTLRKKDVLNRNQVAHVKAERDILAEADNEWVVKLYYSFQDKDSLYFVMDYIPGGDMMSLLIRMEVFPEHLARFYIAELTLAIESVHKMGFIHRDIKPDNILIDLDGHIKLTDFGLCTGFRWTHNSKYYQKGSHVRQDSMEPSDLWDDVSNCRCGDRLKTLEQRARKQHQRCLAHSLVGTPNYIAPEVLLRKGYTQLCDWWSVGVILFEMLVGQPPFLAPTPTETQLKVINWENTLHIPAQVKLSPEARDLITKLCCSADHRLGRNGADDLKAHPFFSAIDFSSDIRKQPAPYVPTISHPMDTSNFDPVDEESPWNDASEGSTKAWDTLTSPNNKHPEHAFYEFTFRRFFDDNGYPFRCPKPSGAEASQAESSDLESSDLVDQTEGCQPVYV
Method in brief: as §1

AKT = AKT (Homo sapiens, UniProt P31749); assay: RBC HotSpot kinase assay (33P-ATP, P81 filter-binding), AKT; conditions: Table 28, biochemical kinase assay; read-out: AKT IC50
Method in brief: as §1

AKT, sequence (P31749 whole entry): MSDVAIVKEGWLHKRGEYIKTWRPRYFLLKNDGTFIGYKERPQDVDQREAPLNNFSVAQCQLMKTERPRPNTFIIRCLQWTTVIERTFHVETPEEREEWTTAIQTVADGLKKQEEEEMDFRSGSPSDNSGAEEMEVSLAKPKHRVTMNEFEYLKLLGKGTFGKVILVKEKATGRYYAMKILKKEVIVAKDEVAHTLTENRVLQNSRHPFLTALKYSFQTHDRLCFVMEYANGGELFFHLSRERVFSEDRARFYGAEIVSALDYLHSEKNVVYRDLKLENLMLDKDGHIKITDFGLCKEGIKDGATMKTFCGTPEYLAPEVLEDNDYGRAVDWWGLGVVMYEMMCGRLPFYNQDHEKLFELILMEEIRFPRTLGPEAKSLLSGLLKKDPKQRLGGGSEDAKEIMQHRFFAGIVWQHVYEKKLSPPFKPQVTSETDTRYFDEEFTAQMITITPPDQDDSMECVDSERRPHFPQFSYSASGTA

IC50 (LATS1) [nM] | IC50 (LATS2) [nM] | IC50 (AKT) [nM] | SMILES
13.8 | 6.6 | 1670 | Cc1cc(-c2ccnc3[nH]cc(F)c23)cc(F)c1[C@@]1(O)[C@H](C)CN(C(=O)[C@@H]2COCCN2)C[C@@H]1C [Compound 68, ((3S,4R,5R)-4-(2-fluoro-4-(3-fluoro-1H-pyrrolo[2,3-b]pyridin-4-yl)-6-methylphenyl)-4-hydroxy-3,5-dimethylpiperidin-1-yl)((S)-morpholin-3-yl)methanone]
8.5 | 3.4 | 677 | Cc1cc(-c2ccnc3[nH]cc(F)c23)cc(F)c1[C@@]1(O)[C@H](C)CN(C(=O)[C@@H]2C[C@@H](O)CN2)C[C@@H]1C [Compound 69, ((3S,4R,5R)-4-(2-fluoro-4-(3-fluoro-1H-pyrrolo[2,3-b]pyridin-4-yl)-6-methylphenyl)-4-hydroxy-3,5-dimethylpiperidin-1-yl)((2S,4R)-4-hydroxypyrrolidin-2-yl)methanone]
7.8 | 2.5 | 376 | Cc1cc(-c2ccnc3[nH]cc(F)c23)cc(F)c1[C@@]1(O)[C@H](C)CN(C(=O)[C@@H]2C[C@H](O)CN2)C[C@@H]1C [Compound 70, ((3S,4R,5R)-4-(2-fluoro-4-(3-fluoro-1H-pyrrolo[2,3-b]pyridin-4-yl)-6-methylphenyl)-4-hydroxy-3,5-dimethylpiperidin-1-yl)((2S,4S)-4-hydroxypyrrolidin-2-yl)methanone]
11.3 | 3.7 | 939 | Cc1cc(-c2ccnc3[nH]cc(F)c23)cc(F)c1[C@@]1(O)[C@H](C)CN(C(=O)CN(C)C)C[C@@H]1C [Compound 71, 2-(dimethylamino)-1-((3S,4s,5R)-4-(2-fluoro-4-(3-fluoro-1H-pyrrolo[2,3-b]pyridin-4-yl)-6-methylphenyl)-4-hydroxy-3,5-dimethylpiperid-1-yl)ethan-1-one]
27.4 | 60 | > 10000 | C[C@@H]1CN(C(=O)C2CC(C)(C)C2)C[C@H](C)C1(O)c1c(F)cc(-c2ccnc3[nH]cc(F)c23)cc1F (stereo partly drawn) [Compound 72, ((3S,5R)-4-(2,6-difluoro-4-(3-fluoro-1H-pyrrolo[2,3-b]pyridin-4-yl)phenyl)-4-hydroxy-3,5-dimethylpiperidin-1-yl)(3,3-dimethylcyclobutyl) methanone]
14.7 | 32.7 | 6470 | Cc1cc(-c2ccnc3[nH]cc(F)c23)cc(F)c1C1(O)[C@H](C)CN(C(=O)C2CC(F)(F)C2)C[C@@H]1C (stereo partly drawn) [Compound 73, (3,3-difluorocyclobutyl) ((3S,5R)-4-(2-fluoro-4-(3-fluoro-1H-pyrrolo[2,3-b]pyridin-4-yl)-6-methylphenyl)-4-hydroxy-3,5-dimethylpiperidin-1-yl)methanone]
35.3 | 12.2 | > 10000 | C[C@@H]1CN(C(=O)C2CC(C(F)(F)F)C2)C[C@H](C)C1(O)c1c(F)cc(-c2ccnc3[nH]cc(F)c23)cc1F (stereo partly drawn) [Compound 74, ((3S,5R)-4-(2,6-difluoro-4-(3-fluoro-1H-pyrrolo[2,3-b]pyridin-4-yl)phenyl)-4-hydroxy-3,5-dimethylpiperidin-1-yl)(3-(trifluoromethyl)cyclobutyl)methanone]
19.9 | 5 | 140 | C[C@@H]1CN(C(=O)CN)C[C@H](C)[C@@]1(O)c1ccc(-c2ccnc3[nH]cc(F)c23)cc1Cl [Compound 75, 2-amino-1-((3R,4s,S5S)-4-(2-chloro-4-(3-fluoro-1H-pyrrolo[2,3-b]pyridin-4-yl)phenyl)-4-hydroxy-3,5-dimethylpiperid-1-yl)ethan-1-one]
29.8 | 18.9 | 1720 | Cc1nc(-c2ccnc3[nH]cc(F)c23)ccc1C1(O)[C@H](C)CN(C(=O)CN)C[C@@H]1C (stereo partly drawn) [Compound 76, 2-amino-1-((3S,5R)-4-(6-(3-fluoro-1H-pyrrolo[2,3-b]pyridin-4-yl)-2-methylpyridin-3-yl)-4-hydroxy-3,5-dimethylpiperidin-1-yl)ethan-1-one]
